In DBAASP:
In brackets after ≈: the same amount, converted by molar mass. Several values for one entry are separate records, joined by “and”; a condition that tells them apart may be missing. Identical values can stand only once. One block for each molecule: values may come before it.

Legend:
Assay in all cases: ≥ marks a high value that may be exact or a test limit, other limits are often not marked, values filed in µg/mL are converted to µM
[1] = tested on: Escherichia coli BL21(DE3)
Escherichia coli K99 = tested on: Escherichia coli K99
Escherichia coli K88 = tested on: Escherichia coli K88
[2] = tested on: Salmonella enterica subsp. enterica serovar Pullorum C79-13
[3] = tested on: Pseudomonas aeruginosa PAO1
[4] = tested on: Pseudomonas aeruginosa CICC 21630
Escherichia coli = tested on: Escherichia coli
[5] = tested on: Salmonella enterica subsp. enterica serovar Typhimurium ATCC 14028
Acinetobacter baumannii = tested on: Acinetobacter baumannii
[6] = tested on: Pseudomonas aeruginosa ATCC 27853
Klebsiella pneumoniae = tested on: Klebsiella pneumoniae
[7] = tested on: Escherichia coli ATCC 25922
[8] = tested on: Salmonella enterica subsp. enterica serovar Typhimurium C77-31
Pseudomonas aeruginosa = tested on: Pseudomonas aeruginosa
Escherichia coli UB1005 = tested on: Escherichia coli UB1005
[9] = tested on: Pseudomonas aeruginosa CICC 21625
Streptococcus sanguinis = tested on: Streptococcus sanguinis
Staphylococcus aureus = tested on: Staphylococcus aureus
[10] = tested on: Staphylococcus aureus ATCC 29213
Enterococcus faecalis = tested on: Enterococcus faecalis
[11] = tested on: Staphylococcus aureus ATCC 43300
Enterococcus faecalis VR = tested on: Enterococcus faecalis VR
[12] = tested on: Escherichia coli ATCC BAA-2523
[13] = tested on: Aeromonas salmonicida CIP 103209T
[14] = tested on: Escherichia coli CIP 54.8T
[15] = tested on: Enterococcus faecalis CIP 76.117
[16] = tested on: Listeria monocytogenes CIP 110871
[17] = tested on: Vibrio vulnificus CIP 109783
[18] = tested on: Staphylococcus aureus CIP 53.156
Candida krusei DSM 70079 = tested on: Candida krusei DSM 70079
[19] = tested on: Aspergillus fumigatus Af293
[20] = tested on: Aspergillus niger ATCC 9029
[21] = tested on: Candida glabrata ATCC 90030
[22] = tested on: Candida albicans ATCC 10231
[23] = tested on: Aspergillus flavus PFCC 100

MIC [1]: 4 µM and 8 µM
Structure (SMILES): CC[C@H](C)[C@H](NC(=O)[C@H](CC(C)C)NC(=O)[C@H](CCCN=C(N)N)NC(=O)[C@@H](NC(=O)[C@H](CC(C)C)NC(=O)[C@H](CCCN=C(N)N)NC(=O)[C@@H](N)CCCN=C(N)N)[C@@H](C)CC)C(=O)N[C@@H](CC(C)C)C(=O)N[C@@H](CCCN=C(N)N)C(=O)N[C@@H](CC(C)C)C(=O)N[C@@H](CC(C)C)C(=O)N[C@@H](CCCN=C(N)N)C(N)=O [RRLIRLILRLLR]

MIC [13]: 7.07 µM (≈ 17 µg/mL)
MIC [14]: 15.8 µM (≈ 38.1 µg/mL)
MIC [15]: 15.8 µM (≈ 38.1 µg/mL)
MIC [16]: 15.8 µM (≈ 38.1 µg/mL)
MIC [17]: ≥ 35.4 µM
MIC [18]: 7.07 µM (≈ 17 µg/mL)
Structure (SMILES): CC[C@H](C)[C@H](NC(=O)[C@H](CC(C)C)NC(=O)[C@H](CC(=O)O)NC(=O)[C@H](Cc1cnc[nH]1)NC(=O)[C@@H](NC(=O)[C@H](CO)NC(=O)[C@H](CCCCN)NC(=O)CNC(=O)[C@@H](NC(=O)[C@H](Cc1cnc[nH]1)NC(=O)[C@H](Cc1ccccc1)NC(=O)[C@H](CC(C)C)NC(=O)CNC(=O)CNC(=O)[C@@H](NC(=O)[C@@H](NC(=O)[C@H](Cc1cnc[nH]1)NC(=O)[C@H](Cc1cnc[nH]1)NC(=O)[C@@H](NC(=O)[C@@H](N)Cc1ccccc1)[C@@H](C)CC)[C@@H](C)CC)[C@@H](C)CC)C(C)C)[C@@H](C)CC)C(=O)N[C@@H](CCCN=C(N)N)C(=O)O [FIHHIIGGLFHVGKSIHDLIR]

MIC (Candida krusei DSM 70079): 6.66 µM (≈ 16 µg/mL)
MIC [19]: 6.66 µM (≈ 16 µg/mL)
MIC [20]: 6.66 µM (≈ 16 µg/mL)
MIC [21]: 3.33 µM (≈ 8 µg/mL)
MIC [22]: 6.66 µM (≈ 16 µg/mL)
MIC [23]: 13.3 µM (≈ 32 µg/mL)
Structure (SMILES): CC[C@H](C)[C@H](NC(=O)CNC(=O)[C@@H](NC(=O)[C@H](Cc1ccccc1)NC(=O)[C@H](C)NC(=O)[C@H](CCCCN)NC(=O)[C@@H](NC(=O)[C@H](CO)NC(=O)[C@@H](N)CC(C)C)C(C)C)[C@@H](C)O)C(=O)N[C@@H](CCC(N)=O)C(=O)N[C@@H](CC(C)C)C(=O)N[C@@H](CCCN=C(N)N)C(=O)NCC(=O)N[C@H](C(=O)N[C@@H](CS)C(=O)NCC(=O)N[C@H](C(=O)N[C@@H](CCC(=O)O)C(=O)N[C@H](C(=O)N[C@@H](CCCCN)C(=O)N[C@@H](C)C(=O)N[C@@H](CCCN=C(N)N)C(=O)NCC(=O)O)C(C)C)[C@@H](C)CC)C(C)C [LSVKAFTGIQLRGVCGIEVKARG]

Second part, the molecule before the results:

Structure (SMILES): CC(C)[C@H](N)C(=O)N[C@@H](CCCCN)C(=O)N1CCC[C@H]1C(=O)N[C@H](C(=O)N[C@H](C(=O)N[C@@H](CCCCN)C(=O)N1CCC[C@H]1C(=O)N[C@H](C(=O)N[C@H](C(=O)N[C@@H](CCCCN)C(=O)N1CCC[C@H]1C(=O)N[C@H](C(=O)N[C@H](C(=O)N[C@@H](CCCCN)C(=O)N1CCC[C@H]1C(=O)N[C@H](C(=O)N[C@H](C(=O)N[C@@H](CCCCN)C(=O)N1CCC[C@H]1C(=O)N[C@H](C(=O)N[C@H](C(=O)N[C@@H](CCCCN)C(=O)N1CCC[C@H]1C(=O)N[C@H](C(N)=O)C(C)C)C(C)C)C(C)C)C(C)C)C(C)C)C(C)C)C(C)C)C(C)C)C(C)C)C(C)C)C(C)C [VKPVVKPVVKPVVKPVVKPVVKPV]
MIC (Escherichia coli K99): ≥ 64 µM
MIC (Escherichia coli K88): ≥ 64 µM
MIC [2]: ≥ 64 µM
MIC [3]: > 64 µM
MIC [4]: ≥ 64 µM
MIC (Escherichia coli): > 64 µM
MIC [5]: > 64 µM
MIC (Acinetobacter baumannii): ≥ 64 µM
MIC [6]: > 64 µM
MIC (Klebsiella pneumoniae): > 64 µM
MIC [7]: > 64 µM
MIC [8]: ≥ 64 µM
MIC (Pseudomonas aeruginosa): > 64 µM
MIC (Escherichia coli UB1005): ≥ 64 µM
MIC [9]: ≥ 64 µM

Structure (SMILES): NC(=O)[C@H](Cc1ccccc1)NC(=O)[C@H](Cc1ccccc1)NC(=O)[C@H](Cc1ccccc1)NC(=O)[C@H](Cc1ccccc1)NC(=O)[C@@H](N)Cc1ccccc1 [FFFFF]
MIC (Streptococcus sanguinis): ≥ 36.3 µM
MIC (Staphylococcus aureus): 33.8 µM (≈ 25.5 µg/mL)

Structure (SMILES): CC(C)C[C@H](NC(=O)[C@@H](N)CCC(N)=O)C(=O)NCC(=O)N[C@@H](CCCN=C(N)N)C(=O)N[C@@H](CCCN=C(N)N)C(=O)N[C@@H](CCCN=C(N)N)C(=O)N[C@@H](Cc1cnc[nH]1)C(=O)N[C@@H](CCCN=C(N)N)C(=O)N[C@@H](CCCN=C(N)N)C(=O)N[C@@H](CCCN=C(N)N)C(=O)N1CCC[C@H]1C(=O)N[C@@H](CO)C(=O)N[C@@H](CCCN=C(N)N)C(=O)N[C@@H](CCCN=C(N)N)C(=O)N[C@@H](CCCN=C(N)N)C(=O)N[C@@H](CCCN=C(N)N)C(=O)N[C@@H](Cc1cnc[nH]1)C(=O)N[C@@H](Cc1c[nH]c2ccccc12)C(=O)O [QLGRRRHRRRPSRRRRHW]
MIC [10]: 32 µM (≈ 80.7 µg/mL)
MIC (Enterococcus faecalis): ≥ 32 µM
MIC [11]: 16 µM (≈ 40.4 µg/mL)
MIC (Enterococcus faecalis VR): 16 µM (≈ 40.4 µg/mL)
MIC [6]: > 128 µM
MIC [7]: 64 µM (≈ 161 µg/mL)
MIC [12]: ≥ 128 µM
MIC (Pseudomonas aeruginosa): 128 µM (≈ 323 µg/mL)
